Measurements: patent publication US20090010998A1 (priority 2007, published 2009)

What was measured:
BALB/c or A/J mice = settings: mouse, in vivo
backs of BALB/c mice = assay: in vivo release test, FD&C dye impregnated dissolvable film on abraded skin; settings: one hour after application; visually noted, estimated
Procedure: In one test, the backs of BALB/c mice were treated in multiple sites with an abrasive device (FAST™ device, see, for example, United States Publication No. 20040236269, incorporated herein by reference) where a 60 μm abrasive, was applied to the skin with 10-20 grams of force, oscillating at 840 Hz for 2 seconds over a 5×8 mm spot. FD&C dye impregnated dissolvable films were placed over each treatment site with a semi-occlusive covering (patch). The patch was left on for a period of 1-24 hours.

Row | Molecule | effect of adjuvant/preservative on antibody titer (BALB/c or A/J mice) | effect of adjuvant/preservative on efficiency of TCI (BALB/c or A/J mice) | presence of dye on the mouse skin (backs of BALB/c mice)
1 | alum | higher titer antibody response |  | 
2 | C=O [formalin] | higher titer antibody response | did not show a statistically significant difference | 
3 | FD&C No. 1 dye |  |  | > 75%
